In article PMC10104807, “Modulation of tau tubulin kinases (TTBK1 and TTBK2) impacts ciliogenesis” (Scientific Reports, 2023):

What was measured:
Test in all cases: DiscoverX scanMAX binding assay
CIT = biological target: T1, CIT (Homo sapiens, UniProt O14578); conditions: 1 μM
T1 construct: purchased Eurofins (radiometric) / Eurofins DiscoverX scanMAX / Reaction Biology / SignalChem
From the text: (§1) This panel includes 403 wild-type (WT) human kinases but not TTBK1/2. […] Substantial overlap between the MRC and DiscoverX scanMAX kinase panels allows the comparison of results for the same kinases in two different assay formats (enzymatic versus binding, respectively) at the same concentration. Selectivity results are included in two columns within Table 1. […] The rightmost column converts this selectivity score into the number of kinases with a PoC < 10 in the scanMAX panel.
(§2) The Eurofins DiscoverX Corporation scanMAX assay platform was employed to assess the selectivity of specific analogs at a single concentration (1 µM). As described previously, this assay platform profiles a compound against 403 wild-type human kinases and delivers percent of control (PoC) values. These percent of control values are included in Table 1 and corresponding kinome tree diagrams as well as tables for each analog included in Fig. S1.

MAP4K2 = biological target: T2, MAP4K2 (Homo sapiens, UniProt Q12851); conditions: for MAP4K2 % control at 1000nM: 1 μM
T2 construct: purchased Eurofins (radiometric) / Eurofins DiscoverX scanMAX / Reaction Biology / SignalChem
T2 sequence (Q12851 1-820): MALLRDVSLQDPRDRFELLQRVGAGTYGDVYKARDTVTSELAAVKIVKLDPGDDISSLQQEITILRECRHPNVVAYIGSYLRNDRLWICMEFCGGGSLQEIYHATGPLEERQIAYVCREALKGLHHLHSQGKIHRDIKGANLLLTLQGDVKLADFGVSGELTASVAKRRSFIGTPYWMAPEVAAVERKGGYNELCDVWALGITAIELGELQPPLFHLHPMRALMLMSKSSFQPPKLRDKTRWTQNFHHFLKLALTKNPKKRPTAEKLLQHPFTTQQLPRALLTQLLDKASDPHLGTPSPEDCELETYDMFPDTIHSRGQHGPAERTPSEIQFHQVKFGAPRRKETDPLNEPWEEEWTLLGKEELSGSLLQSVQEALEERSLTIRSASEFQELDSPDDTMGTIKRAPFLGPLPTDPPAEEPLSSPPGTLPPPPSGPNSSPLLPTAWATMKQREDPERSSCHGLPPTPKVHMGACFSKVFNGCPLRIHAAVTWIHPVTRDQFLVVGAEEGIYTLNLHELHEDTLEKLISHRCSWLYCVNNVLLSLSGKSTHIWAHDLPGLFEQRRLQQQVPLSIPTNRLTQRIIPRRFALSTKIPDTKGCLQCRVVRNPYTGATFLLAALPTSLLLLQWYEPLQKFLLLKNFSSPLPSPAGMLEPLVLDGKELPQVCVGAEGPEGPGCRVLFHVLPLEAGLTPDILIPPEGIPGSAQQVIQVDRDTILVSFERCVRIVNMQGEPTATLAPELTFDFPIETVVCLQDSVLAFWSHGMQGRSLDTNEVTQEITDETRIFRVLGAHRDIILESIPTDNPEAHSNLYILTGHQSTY
From the text: as §1, §2

YSK4 = biological target: T3, YSK4 (Homo sapiens, UniProt Q56UN5); conditions: 1 μM
T3 construct: purchased Eurofins (radiometric) / Eurofins DiscoverX scanMAX / Reaction Biology / SignalChem
T3 sequence (Q56UN5 1-1328): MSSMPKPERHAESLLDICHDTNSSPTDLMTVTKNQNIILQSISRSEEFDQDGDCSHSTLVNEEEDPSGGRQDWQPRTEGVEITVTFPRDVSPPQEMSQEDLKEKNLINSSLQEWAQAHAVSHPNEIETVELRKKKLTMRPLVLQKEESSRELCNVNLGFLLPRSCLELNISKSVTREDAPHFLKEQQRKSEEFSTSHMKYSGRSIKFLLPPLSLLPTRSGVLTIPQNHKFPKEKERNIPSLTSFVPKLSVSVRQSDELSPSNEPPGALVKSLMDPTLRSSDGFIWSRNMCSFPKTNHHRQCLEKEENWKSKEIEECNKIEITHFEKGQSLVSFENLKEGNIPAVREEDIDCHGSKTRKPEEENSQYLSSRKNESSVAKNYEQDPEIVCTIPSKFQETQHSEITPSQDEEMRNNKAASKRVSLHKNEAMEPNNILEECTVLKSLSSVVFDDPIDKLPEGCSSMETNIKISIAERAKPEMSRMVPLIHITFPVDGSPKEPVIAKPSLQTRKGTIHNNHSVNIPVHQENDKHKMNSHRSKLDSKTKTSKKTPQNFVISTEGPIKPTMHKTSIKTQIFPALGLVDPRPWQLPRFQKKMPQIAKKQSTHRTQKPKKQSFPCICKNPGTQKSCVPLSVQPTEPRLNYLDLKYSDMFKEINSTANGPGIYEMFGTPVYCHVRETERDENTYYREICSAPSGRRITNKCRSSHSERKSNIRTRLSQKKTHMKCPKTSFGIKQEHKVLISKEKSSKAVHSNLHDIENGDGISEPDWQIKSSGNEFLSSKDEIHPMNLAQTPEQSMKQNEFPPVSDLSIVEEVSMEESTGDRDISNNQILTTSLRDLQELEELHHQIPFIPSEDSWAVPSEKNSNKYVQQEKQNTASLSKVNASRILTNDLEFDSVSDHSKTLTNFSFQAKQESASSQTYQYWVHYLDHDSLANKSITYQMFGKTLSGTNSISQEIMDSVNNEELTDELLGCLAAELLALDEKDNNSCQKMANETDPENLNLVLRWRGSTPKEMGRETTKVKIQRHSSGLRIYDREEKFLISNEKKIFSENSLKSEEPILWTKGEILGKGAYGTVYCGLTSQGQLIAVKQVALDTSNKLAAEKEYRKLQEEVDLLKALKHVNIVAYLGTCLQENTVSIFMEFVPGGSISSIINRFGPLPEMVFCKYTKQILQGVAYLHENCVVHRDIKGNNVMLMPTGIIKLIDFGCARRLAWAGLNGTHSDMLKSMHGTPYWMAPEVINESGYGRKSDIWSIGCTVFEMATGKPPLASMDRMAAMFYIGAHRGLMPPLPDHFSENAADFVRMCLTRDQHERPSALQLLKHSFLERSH
From the text: as §1, §2

T1 sequence (O14578 whole entry): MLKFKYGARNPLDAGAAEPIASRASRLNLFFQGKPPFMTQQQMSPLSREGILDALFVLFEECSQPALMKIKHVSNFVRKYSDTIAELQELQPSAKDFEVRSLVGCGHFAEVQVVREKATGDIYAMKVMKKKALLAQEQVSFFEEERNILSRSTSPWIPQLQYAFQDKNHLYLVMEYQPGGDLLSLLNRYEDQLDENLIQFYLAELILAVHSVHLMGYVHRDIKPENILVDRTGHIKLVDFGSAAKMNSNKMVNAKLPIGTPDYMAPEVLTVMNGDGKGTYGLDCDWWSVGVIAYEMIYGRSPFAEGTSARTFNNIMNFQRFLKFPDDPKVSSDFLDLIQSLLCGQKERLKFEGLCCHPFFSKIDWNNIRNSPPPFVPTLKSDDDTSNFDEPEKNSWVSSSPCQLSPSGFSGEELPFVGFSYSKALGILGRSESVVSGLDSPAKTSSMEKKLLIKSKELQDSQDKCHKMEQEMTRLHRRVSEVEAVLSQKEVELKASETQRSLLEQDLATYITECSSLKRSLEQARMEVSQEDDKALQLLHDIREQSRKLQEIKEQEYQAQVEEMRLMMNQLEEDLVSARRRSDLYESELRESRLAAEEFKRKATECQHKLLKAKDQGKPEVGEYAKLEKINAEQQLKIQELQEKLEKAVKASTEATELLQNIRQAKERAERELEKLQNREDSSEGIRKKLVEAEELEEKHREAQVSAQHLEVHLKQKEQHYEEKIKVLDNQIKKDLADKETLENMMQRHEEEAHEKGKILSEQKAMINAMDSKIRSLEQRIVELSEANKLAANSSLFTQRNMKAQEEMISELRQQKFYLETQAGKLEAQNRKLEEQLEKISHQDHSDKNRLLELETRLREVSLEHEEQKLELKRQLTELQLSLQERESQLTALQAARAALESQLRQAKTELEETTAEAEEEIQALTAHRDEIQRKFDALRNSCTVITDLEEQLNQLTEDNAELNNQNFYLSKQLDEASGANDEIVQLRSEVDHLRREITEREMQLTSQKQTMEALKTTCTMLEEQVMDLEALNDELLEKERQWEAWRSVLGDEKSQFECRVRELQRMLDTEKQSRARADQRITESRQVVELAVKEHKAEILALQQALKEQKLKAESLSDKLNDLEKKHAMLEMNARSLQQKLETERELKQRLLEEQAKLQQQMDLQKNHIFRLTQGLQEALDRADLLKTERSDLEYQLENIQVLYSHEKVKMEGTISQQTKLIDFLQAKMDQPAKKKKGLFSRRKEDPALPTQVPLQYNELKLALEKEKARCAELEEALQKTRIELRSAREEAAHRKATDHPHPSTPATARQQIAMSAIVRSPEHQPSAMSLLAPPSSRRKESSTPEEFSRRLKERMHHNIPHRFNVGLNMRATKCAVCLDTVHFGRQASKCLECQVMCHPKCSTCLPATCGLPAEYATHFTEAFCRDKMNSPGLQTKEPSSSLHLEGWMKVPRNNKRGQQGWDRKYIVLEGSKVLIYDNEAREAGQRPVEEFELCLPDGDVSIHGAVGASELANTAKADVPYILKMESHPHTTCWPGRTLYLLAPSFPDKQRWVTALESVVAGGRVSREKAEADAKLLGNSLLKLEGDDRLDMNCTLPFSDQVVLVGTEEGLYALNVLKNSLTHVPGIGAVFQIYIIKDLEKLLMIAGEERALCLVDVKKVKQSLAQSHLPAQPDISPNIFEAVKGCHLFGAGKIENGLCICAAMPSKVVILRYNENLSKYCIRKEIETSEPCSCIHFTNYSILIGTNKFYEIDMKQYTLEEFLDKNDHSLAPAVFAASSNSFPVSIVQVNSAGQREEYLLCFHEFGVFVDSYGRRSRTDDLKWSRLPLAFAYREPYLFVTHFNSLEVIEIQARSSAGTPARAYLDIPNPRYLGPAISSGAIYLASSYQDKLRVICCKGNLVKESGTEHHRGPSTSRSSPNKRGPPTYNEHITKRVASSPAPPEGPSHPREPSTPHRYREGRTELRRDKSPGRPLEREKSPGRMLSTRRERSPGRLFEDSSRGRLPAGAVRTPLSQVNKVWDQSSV

Structure (SMILES)	CIT (CRIK) % control at 1000nM / DiscoverX PoC value (CIT) [% control]	MAP4K2 % control at 1000nM (MAP4K2) [% control]	YSK4 % control at 1000nM / DiscoverX PoC value (YSK4) [% control]	percent of control (binding) at 1 µM (MAP4K2; read-out: MAP4K2 % control at 1000nM) [%]
CC(C)(O)C#Cc1ccc2[nH]cc(-c3ccnc(N)n3)c2c1 [Compound 3]	0	1.6	0	–
CC(C)(O)C#Cc1ccc2[nH]c3c(c2c1)-c1nc(N)ncc1CC3 [Compound 1]	0	2	0	–
CC(C)(O)C#Cc1ccc2[nH]c3c(c2c1)-c1nc(N)ncc1CCC3 [AMG28, reference compound]	1.3	–	0	1.3
